{"source": "patent US20060160905A1", "about": "“Compositions and methods for inhibiting pain” (priority 2005, published 2006)", "tested_on": "acetic acid-induced visceral pain", "test": "acetic acid-induced visceral pain mouse model (writhing/stretch count)", "format": "in vivo, mice (male Harlan ICR)", "conditions": "for number of stretches (writhes) per 30 minutes: 0.75% acetic acid IP half an hour later, control mice typically stretch 65-70 times/30 minutes; for effect on inhibiting visceral pain (stretches vs. control mice), in words: doses from 0.37 mg/kg to 30.0 mg/kg SC", "description": "The acetic acid-induced visceral pain mouse model test is, of course, well known to those skilled in the art and is described in the seminal paper by Collier et al [Collier, H. O. J., L. C. Dinneen, C. A. Johnson and C. Schneider 1968. The abdominal constriction response and its suppression by analgesic drugs in the mouse.\nThe drugs are identified below as Monoamine #1-6. Five groups of five mice (male Harlan ICR, weight 35-50 g) were used to test each of the drugs. Control animals were tested as part of each experiment as well. The mice in each group were weighed and identified with a tail marking and were given a single dose of one of the drugs at 1 ml/100 g SC. The first group served as controls and was given only saline; the other five groups were given a drug at five doses ranging from 0.37 mg/kg up to 30.0 mg/kg. After the drug was administered, the mice were allowed to acclimate for one-half hour and were then given an IP injection of 0.75% Glacial acetic acid at a volume of 1 ml/100 g. Once the acid was injected, the mice were put into individual clear containers for observation. The mice were then watched continuously for one-half hour and the number of “stretches” or writhes were counted. The animal was considered to be stretching when its front legs stepped forward and at least one hind leg was extended out behind them. At the end of the thirty-minute observational period the mice were sacrificed with CO2. The same procedure was followed for all of the different compounds examined.", "data": [{"compound": "CCNCCc1ccccc1O.Cl", "note": "[Monoamine #1, 2-[2-(Ethylamino)ethyl]phenol Hydrochloride]", "values": [{"measurement": "number of stretches (writhes) per 30 minutes", "setting": "10 mg/kg SC single dose", "result": "25.9±14.8", "unit": "stretches/30 minutes"}, {"measurement": "number of stretches (writhes) per 30 minutes", "setting": "30 mg/kg SC single dose", "result": "13.1±11.7", "unit": "stretches/30 minutes"}, {"measurement": "effect on inhibiting visceral pain (stretches vs. control mice), in words", "setting": "Hydrochloride", "result": "statistical significance at all doses tested"}, {"measurement": "effect on inhibiting visceral pain (stretches vs. control mice), in words", "setting": "listed as #1, Hydrochloride", "result": "effective at all of the doses tested"}]}, {"compound": "CCNCCCc1ccccc1O.Cl", "note": "[Monoamine #2]", "values": [{"measurement": "number of stretches (writhes) per 30 minutes", "setting": "30 mg/kg SC single dose", "result": "47.7±22.4", "unit": "stretches/30 minutes"}, {"measurement": "effect on inhibiting visceral pain (stretches vs. control mice), in words", "result": "only a minimal effect on inhibiting visceral pain"}, {"measurement": "effect on inhibiting visceral pain (stretches vs. control mice), in words", "setting": "listed as #2", "result": "little/no effect"}]}, {"compound": "CCNCCCCc1ccccc1O", "note": "[Monoamine #3]", "values": [{"measurement": "effect on inhibiting visceral pain (stretches vs. control mice), in words", "result": "significantly fewer stretches than the control mice"}, {"measurement": "effect on inhibiting visceral pain (stretches vs. control mice), in words", "setting": "listed as #3", "result": "effective at all of the doses tested"}]}, {"compound": "CCN(CCCc1ccccc1O)Cc1ccccc1.CS(=O)(=O)O", "note": "[Monoamine #4]", "values": [{"measurement": "effect on inhibiting visceral pain (stretches vs. control mice), in words", "result": "not effective against visceral pain"}, {"measurement": "effect on inhibiting visceral pain (stretches vs. control mice), in words", "setting": "listed as #4", "result": "little/no effect"}]}, {"compound": "CCNCCCCC1CCCCC1", "note": "[Monoamine #5, N-(4-cyclohexylbutyl)-N-ethylamine]", "values": [{"measurement": "effect on inhibiting visceral pain (stretches vs. control mice), in words", "result": "significantly fewer stretches than the control mice"}, {"measurement": "effect on inhibiting visceral pain (stretches vs. control mice), in words", "setting": "listed as #5", "result": "effective at all of the doses tested"}]}, {"compound": "CCCCCCNC1CCCCC1", "note": "[Monoamine #6, N-hexylcyclohexanamine]", "values": [{"measurement": "effect on inhibiting visceral pain (stretches vs. control mice), in words", "result": "not effective against visceral pain"}, {"measurement": "effect on inhibiting visceral pain (stretches vs. control mice), in words", "setting": "listed as #6", "result": "little/no effect"}]}]}
